Laboratory results as given in the NIST ThermoML archive (doi:10.1016/j.fluid.2013.01.004).
Numbers after ± are expanded uncertainties.

How the values were obtained:
[1] = refractive index (Na D-line) (dimensionless); wn = mass fraction of the nth substance listed; conditions: 323.15 K, 101 kPa, Liquid, Standard Abbe refractometry
[2] = wn = mass fraction of the nth substance listed; conditions: 323.15 K, 101 kPa, Liquid, Pycnometric method

refractive index ([1]; w1 = 0.5202) | mass density ([2]; w1 = 0.5202) | refractive index ([1]; w1 = 0.338) | mass density ([2]; w1 = 0.338) | Structure (SMILES)
1.462 ± 0.0013 | 1662.2 ± 9.3 kg/m3 | – | – | [Br-].[Br-].[Mg+2] [magnesium bromide (MgBr2)] + O
– | – | 1.3982 ± 0.0012 | 1387.2 ± 2.1 kg/m3 | O=S(=O)([O-])[O-].[Mg+2] [magnesium sulfate] + O
